The CheMixHub viscosity set

Assay: xn = mol fraction of the nth substance listed

C=CC(C)(O)CCC=C(C)C (stereo unspecified) + CCCCCC
298.15 K, 101.33 kPa
Conditions | viscosity [mPa·s]
x2 = 0.0412 | 3.82
x2 = 0.103 | 3.13
x2 = 0.2546 | 1.952
x2 = 0.3645 | 1.418
x2 = 0.4938 | 0.995
x2 = 0.5828 | 0.792
x2 = 0.6605 | 0.637
x2 = 0.7376 | 0.525
x2 = 0.8069 | 0.445
x2 = 0.8815 | 0.372
x2 = 0.9366 | 0.33
x2 = 0.9766 | 0.306

ClC(Cl)=C(Cl)Cl + CCCCCC
303.15 K, 101 kPa
Conditions | viscosity [mPa·s]
x1 = 0.1642 | 0.358
x1 = 0.2468 | 0.388
x1 = 0.3358 | 0.432
x1 = 0.4336 | 0.471
x1 = 0.4782 | 0.494
x1 = 0.514 | 0.515
x1 = 0.6464 | 0.591
x1 = 0.7236 | 0.643
x1 = 0.8072 | 0.697
x1 = 0.9346 | 0.776

CCCCCCCC + CCCCCCC
Conditions | viscosity [mPa·s]
293.15 K, 101 kPa, x2 = 0.2 | 0.511
293.15 K, 101 kPa, x2 = 0.4 | 0.484
293.15 K, 101 kPa, x2 = 0.6 | 0.458
293.15 K, 101 kPa, x2 = 0.8 | 0.433
293.15 K, 101.33 kPa, x2 = 0.07168 | 0.531
293.15 K, 101.33 kPa, x2 = 0.1121 | 0.525
293.15 K, 101.33 kPa, x2 = 0.1909 | 0.514
293.15 K, 101.33 kPa, x2 = 0.2852 | 0.501
293.15 K, 101.33 kPa, x2 = 0.3891 | 0.487
293.15 K, 101.33 kPa, x2 = 0.4993 | 0.473
293.15 K, 101.33 kPa, x2 = 0.5985 | 0.46
293.15 K, 101.33 kPa, x2 = 0.6936 | 0.448
293.15 K, 101.33 kPa, x2 = 0.7797 | 0.437
293.15 K, 101.33 kPa, x2 = 0.8967 | 0.422
293.15 K, 101.33 kPa, x2 = 0.9584 | 0.414
298.15 K, 101.33 kPa, x2 = 0.1073 | 0.4942
298.15 K, 101.33 kPa, x2 = 0.2098 | 0.4774
298.15 K, 101.33 kPa, x2 = 0.406 | 0.4539
298.15 K, 101.33 kPa, x2 = 0.5089 | 0.4431
298.15 K, 101.33 kPa, x2 = 0.6081 | 0.4285
298.15 K, 101.33 kPa, x2 = 0.7052 | 0.4201
298.15 K, 101.33 kPa, x2 = 0.807 | 0.4103
298.15 K, 101.33 kPa, x2 = 0.9012 | 0.3958
303.15 K, 101.33 kPa, x2 = 0.1022 | 0.469
303.15 K, 101.33 kPa, x2 = 0.199 | 0.458
303.15 K, 101.33 kPa, x2 = 0.2324 | 0.454
303.15 K, 101.33 kPa, x2 = 0.3088 | 0.445
303.15 K, 101.33 kPa, x2 = 0.369 | 0.438
303.15 K, 101.33 kPa, x2 = 0.5069 | 0.423
303.15 K, 101.33 kPa, x2 = 0.5644 | 0.416
303.15 K, 101.33 kPa, x2 = 0.6459 | 0.407
303.15 K, 101.33 kPa, x2 = 0.7393 | 0.397
303.15 K, 101.33 kPa, x2 = 0.799 | 0.391
303.15 K, 101.33 kPa, x2 = 0.9128 | 0.379
312.75 K, 100 kPa, x1 = 0.2 | 0.3426
313.15 K, 101 kPa, x2 = 0.2 | 0.407
313.15 K, 101 kPa, x2 = 0.4 | 0.387
313.15 K, 101 kPa, x2 = 0.6 | 0.368
313.15 K, 101 kPa, x2 = 0.8 | 0.35
313.15 K, 101.33 kPa, x2 = 0.05003 | 0.426
313.15 K, 101.33 kPa, x2 = 0.09664 | 0.421
313.15 K, 101.33 kPa, x2 = 0.1716 | 0.413
313.15 K, 101.33 kPa, x2 = 0.212 | 0.409
313.15 K, 101.33 kPa, x2 = 0.2687 | 0.404
313.15 K, 101.33 kPa, x2 = 0.3937 | 0.392
313.15 K, 101.33 kPa, x2 = 0.4963 | 0.382
313.15 K, 101.33 kPa, x2 = 0.596 | 0.372
313.15 K, 101.33 kPa, x2 = 0.6942 | 0.363
313.15 K, 101.33 kPa, x2 = 0.7937 | 0.354
313.15 K, 101.33 kPa, x2 = 0.9085 | 0.343
313.15 K, 101.33 kPa, x2 = 0.9589 | 0.339

CCCCCO + CCCCCCC
Conditions | viscosity [mPa·s]
293.15 K, 100 kPa, x2 = 0.0249 | 3.71
293.15 K, 100 kPa, x2 = 0.081 | 3.099
293.15 K, 100 kPa, x2 = 0.1471 | 2.521
293.15 K, 100 kPa, x2 = 0.259 | 1.798
293.15 K, 100 kPa, x2 = 0.3365 | 1.429
293.15 K, 100 kPa, x2 = 0.3987 | 1.196
293.15 K, 100 kPa, x2 = 0.4734 | 0.975
293.15 K, 100 kPa, x2 = 0.5627 | 0.776
293.15 K, 100 kPa, x2 = 0.6484 | 0.641
293.15 K, 100 kPa, x2 = 0.734 | 0.544
293.15 K, 100 kPa, x2 = 0.8184 | 0.474
293.15 K, 100 kPa, x2 = 0.9043 | 0.42
293.2 K, 101 kPa, x1 = 0.3 | 0.655
293.8 K, 101 kPa, x1 = 0.5 | 0.924
293.9 K, 101 kPa, x1 = 0.051 | 0.491
298.15 K, 100 kPa, x2 = 0.0249 | 3.218
298.15 K, 100 kPa, x2 = 0.081 | 2.702
298.15 K, 100 kPa, x2 = 0.1471 | 2.211
298.15 K, 100 kPa, x2 = 0.259 | 1.591
298.15 K, 100 kPa, x2 = 0.3365 | 1.277
298.15 K, 100 kPa, x2 = 0.3987 | 1.076
298.15 K, 100 kPa, x2 = 0.4734 | 0.884
298.15 K, 100 kPa, x2 = 0.5627 | 0.712
298.15 K, 100 kPa, x2 = 0.6484 | 0.594
298.15 K, 100 kPa, x2 = 0.734 | 0.507
298.15 K, 100 kPa, x2 = 0.8184 | 0.445
298.15 K, 100 kPa, x2 = 0.9043 | 0.396
298.15 K, 101.33 kPa, x1 = 0.0652 | 0.4117
298.15 K, 101.33 kPa, x1 = 0.1304 | 0.4449
298.15 K, 101.33 kPa, x1 = 0.2489 | 0.5244
298.15 K, 101.33 kPa, x1 = 0.3595 | 0.6427
298.15 K, 101.33 kPa, x1 = 0.4654 | 0.8116
298.15 K, 101.33 kPa, x1 = 0.5682 | 1.041
298.15 K, 101.33 kPa, x1 = 0.6617 | 1.338
298.15 K, 101.33 kPa, x1 = 0.7552 | 1.713
298.15 K, 101.33 kPa, x1 = 0.8805 | 2.418
298.15 K, 101.33 kPa, x1 = 0.9606 | 3.057
303.15 K, 100 kPa, x2 = 0.0249 | 2.804
303.15 K, 100 kPa, x2 = 0.081 | 2.365
303.15 K, 100 kPa, x2 = 0.1471 | 1.945
303.15 K, 100 kPa, x2 = 0.259 | 1.415
303.15 K, 100 kPa, x2 = 0.3365 | 1.145
303.15 K, 100 kPa, x2 = 0.3987 | 0.971
303.15 K, 100 kPa, x2 = 0.4734 | 0.805
303.15 K, 100 kPa, x2 = 0.5627 | 0.655
303.15 K, 100 kPa, x2 = 0.6484 | 0.551
303.15 K, 100 kPa, x2 = 0.734 | 0.474
303.15 K, 100 kPa, x2 = 0.8184 | 0.417
303.15 K, 100 kPa, x2 = 0.9043 | 0.371
308.15 K, 100 kPa, x2 = 0.0249 | 2.453
308.15 K, 100 kPa, x2 = 0.081 | 2.08
308.15 K, 100 kPa, x2 = 0.1471 | 1.72
308.15 K, 100 kPa, x2 = 0.259 | 1.262
308.15 K, 100 kPa, x2 = 0.3365 | 1.03
308.15 K, 100 kPa, x2 = 0.3987 | 0.879
308.15 K, 100 kPa, x2 = 0.4734 | 0.739
308.15 K, 100 kPa, x2 = 0.5627 | 0.604
308.15 K, 100 kPa, x2 = 0.6484 | 0.515
308.15 K, 100 kPa, x2 = 0.734 | 0.438
308.15 K, 100 kPa, x2 = 0.8184 | 0.39
308.15 K, 100 kPa, x2 = 0.9043 | 0.349
308.15 K, 101.33 kPa, x1 = 0.0652 | 0.368
308.15 K, 101.33 kPa, x1 = 0.1304 | 0.3956
308.15 K, 101.33 kPa, x1 = 0.2489 | 0.4627
308.15 K, 101.33 kPa, x1 = 0.3595 | 0.5523
308.15 K, 101.33 kPa, x1 = 0.4654 | 0.6821
308.15 K, 101.33 kPa, x1 = 0.5682 | 0.841
308.15 K, 101.33 kPa, x1 = 0.6617 | 1.062
308.15 K, 101.33 kPa, x1 = 0.7552 | 1.353
308.15 K, 101.33 kPa, x1 = 0.8805 | 1.931
308.15 K, 101.33 kPa, x1 = 0.9606 | 2.382
313.15 K, 100 kPa, x2 = 0.0249 | 2.155
313.15 K, 100 kPa, x2 = 0.081 | 1.836
313.15 K, 100 kPa, x2 = 0.1471 | 1.526
313.15 K, 100 kPa, x2 = 0.259 | 1.132
313.15 K, 100 kPa, x2 = 0.3365 | 0.936
313.15 K, 100 kPa, x2 = 0.3987 | 0.798
313.15 K, 100 kPa, x2 = 0.4734 | 0.674
313.15 K, 100 kPa, x2 = 0.5627 | 0.557
313.15 K, 100 kPa, x2 = 0.6484 | 0.485
313.15 K, 100 kPa, x2 = 0.734 | 0.414
313.15 K, 100 kPa, x2 = 0.8184 | 0.366
313.15 K, 100 kPa, x2 = 0.9043 | 0.327
